7 compounds from paper PMC12156033, “N-Alkylamino Stilbene Compounds as Amyloid β Inhibitors for Alzheimer’s Disease Research” (Molecules, 2025) can be followed below.

Entries after “also recorded” stand apart in the source; their conditions may differ.

Data set [1] concerns Cu-Aβ42 cytotoxicity on N2a cells. Nature of the data set: N2a cell rescue from Cu-induced Aβ42 cytotoxicity (Alamar blue). The data set is classed as cell-based, mouse. The settings on record: [Aβ42] = [CuCl2] = 20 μM, compound 5 μM. The protocol:
Mouse neuroblastoma Neuro2A (N2A) cell lines were purchased from the American Type Culture Collection (ATCC), Manassas, VA, USA. Cells were grown in DMEM/10% FBS, which is the regular growth media for N2A cells, in a humidified atmosphere with 5% CO2 at 37 °C. N2A cells were seeded in a clear 96-well plate (2.5 × 10^4/well) with DMEM/10% FBS. The media was changed to DMEM/N-2 media 24 h later. After 1 h, the treatment reagents were added. Owing to the poor solubility of compounds in the media, the final amount of DMSO used was 1% (v/v). After an additional incubation of 40 h, Alamar Blue solution was added to each well, and the cells were incubated for 90 min at 37 °C. Fluorescence intensity was measured at 590 nm (excitation wavelength = 560 nm).
The Alamar Blue assay was carried out as described, with the following treatment reagents: 20 μM Aβ42 species, 5 μM compounds, and 20 μM CuCl2.
(The colour change of resazurin is a common sign of viable cells or microbes.)

Data set [2] is described as follows: Log D measurement octanol/PBS. The data set is classed as physicochemical. The conditions noted are these: octanol / PBS pH 7.4, 10 μM, triplicate, ± SD. The protocol:
The determination of log D values for N-alkylamino multifunctional compounds was performed using a slightly modified reported procedure. The compounds (final concentration 10 μM) were added to the premix suspension containing 0.5 mL octanol and 0.5 mL octanol-saturated PBS buffer (pH = 7.4). The resulting mixture was stirred vigorously for 5 min and centrifuged at 2000 rpm for 5 min. The octanol layer was separated from the PBS layer, and the fluorescence spectrum was recorded. The remaining 0.5 mL PBS layer was partitioned with 0.5 mL PBS-saturated octanol, and the octanol layer was separated after 5 min of vigorous shaking and centrifuging. The fluorescence spectrum of the octanol layer was recorded. The log D value was calculated based on the fluorescence intensity ratio for the two octanol layers. Each experiment was completed in triplicate, and the error represents the standard deviation for the average log D values.

A further data set has as its target T1, Aβ42 fibrils (Homo sapiens, UniProt P05067).
T1 construct: commercial Aβ42 peptide (AnaSpec or GL Biochem); purchased AnaSpec or GL Biochem
The data set can be described thus: Fluorescence spectra of compounds with Aβ42 fibrils. The conditions noted are these: excitation 380 nm; compound 5.0 µM in PBS with Aβ fibrils. The data set is classed as binding. The protocol: (§1) All fluorescence measurements were performed using a SpectraMax M2e plate reader (Molecular Devices, San Jose, CA, USA). The fluorescence spectra of the compounds’ solution (100 μL PBS, 5.0 µM) were recorded with excitation at 380 nm and an emission wavelength from 400 to 680 nm. To PBS solutions (100 μL) of the compounds (5.0 µM), various Aβ42 species were added, with final concentrations of 5.0 µM and 25.0 µM, and their fluorescence spectra (λmax of emission) were determined as described above.
(§2) Aβ42 powder was prepared by dissolving commercial Aβ42 peptide (AnaSpec or GL Biochem) in ammonium hydroxide solution (1%, v/v). The solution was then aliquoted out and lyophilized overnight. The resulting aliquoted powder was stored at −80 °C. Aβ42 monomers were generated by dissolving Aβ42 powder in 1,1,1,3,3,3-hexafluoro-2-propanol (HFIP, 1 mM) and incubating for 1 h at room temperature. The solution was then evaporated overnight and dried by vacuum centrifuge to result in monomeric films. Aβ42 fibrils were generated by dissolving the monomeric Aβ42 films in DMSO, diluting into the appropriate buffer, and incubating for 24 h at 37 °C with continuous agitation (final DMSO concentration was <2%). For the preparation of Aβ42 oligomers, the peptides were suspended in PBS buffer and incubated overnight at 4 °C.

Data set [3] deals with T2, soluble Aβ42 aggregates (sAβ) (Homo sapiens, UniProt P05067).
T2 construct: commercial Aβ42 peptide (AnaSpec or GL Biochem); purchased AnaSpec or GL Biochem
The data set can be described thus: Fluorescence spectra of compounds with soluble Aβ42 aggregates. It is filed as binding. The conditions noted are these: excitation 380 nm; compound 5.0 µM in PBS with soluble Aβ aggregates. The protocol:
as §1, §2

Data set [4] in a line: Fluorescence spectra of the compounds alone in PBS. The settings on record: excitation 380 nm; compound 5.0 µM in PBS. The data set is classed as physicochemical. The protocol:
as §1

The target of data set [5] is T3, amyloid plaques in 5xFAD mice brain sections (Homo sapiens, UniProt P05067).
T3 construct: the amyloid beta (Aβ) peptide that makes up amyloid plaques; tissue Jackson Laboratories; host or cells: brain sections from 11-month-old 5xFAD transgenic mice (Tg6799 line)
The data set can be described thus: Histological staining of 5xFAD mice brain sections, colocalization with HJ3.4 antibody. It is filed as binding, mouse. The conditions noted are these: 11-month-old 5xFAD mice brain sections, compound 25 μM, HJ3.4 1 μg/mL. From the text:
To further investigate the affinity of the developed compounds toward various Aβ aggregates in situ, the intrinsic fluorescence properties of the compounds were employed for their ability to stain insoluble amyloid plaques. For these studies, brain sections from 11-month-old 5xFAD transgenic mice, which rapidly develop severe amyloid pathology, were co-stained with stilbenes and HJ3.4 antibody. HJ3.4 is an anti-amyloid antibody that binds to the N-terminal region of the Aβ peptide, thereby targeting both soluble and insoluble amyloid species. To evaluate the Aβ binding specificity of the compounds in vitro, brain sections from 11-month-old 5xFAD mice were washed with PBS (3 × 5 min) and blocked with bovine serum albumin (2% w/v BSA in PBS, pH 7.4, 10 min). Then, the sections were incubated with 25 μM of multifunctional compounds and sequentially stained with HJ3.4 antibody (Professor David Holtzman, 1 μg/mL) for 30 min. The brain sections were treated with 2% w/v BSA-PBS again for 4 min to remove any compounds or antibodies that were non-specifically binding to the tissue. Finally, the sections were washed with PBS (3 × 2 min) and DI water (2 min) and mounted with non-fluorescent mounting media (Vectashield). Colocalization analysis and determination of Pearson’s correlation coefficient were performed with the imaging software Fiji (ImageJ 1.52p). Mouse brains were harvested in compliance with the Institutional Animal Care and Use Committee of the University of Illinois at Urbana-Champaign (IACUC protocol #22094).

The target in data set [6] is T4, Aβ aggregates (sAβ and Aβ fibrils) (Homo sapiens, UniProt P05067).
T4 construct: commercial Aβ42 peptide (AnaSpec or GL Biochem); purchased AnaSpec or GL Biochem
Nature of the data set: Fluorescence turn-on assay with Aβ aggregates. The data set is classed as binding. The settings on record: compound 5 μM in PBS pH 7.4. How it is done:
A fluorescence turn-on assay was performed to interrogate the effect of structural differences on the fluorescence enhancement with Aβ aggregates. […] Increases in fluorescence intensity with different aggregates would be ideal for tools used in amyloid-based assays. […] Without the ortho-methoxy group on the EAG, there is greater fluorescence enhancement for Aβ fibrils over sAβ for L3 and L4. […] The larger fluorescence enhancement observed for L6 than L5 indicates the dimethylamine EDG/methoxy EAG pair has a greater TICT. The piperidine-EDG-containing L7 has only slightly higher turn-on with sAβ, which may be attributed to the ortho-methoxy group on the EAG. […] In this case, it appears that the methoxy on the EAG diminishes the overall fluorescence of the compound since L8 has greater baseline fluorescence and turn-on than L7. This is also the case for the morpholine-EDG-containing L9 and L10. The lack of a methoxy group on the L10 EAG, in conjunction with the oxygen heteroatom from the morpholine EDG, electronically favors turn-on with Aβ fibrils to a slight extent. […] Changing the EDG to a methyl piperazine, L11, increases baseline fluorescence and turn-on compared to L9. […] L11 and L12, both containing an N-methyl piperazine EDG, show similar turn-on with sAβ and fibrils, and the o-methoxy EAG of L11 increases overall baseline fluorescence compared to L12. […] The spectra for the remaining compounds can be found in the Supplementary Information (Figure S1). None of the three compounds with the highest fluorescence contained an o-methoxy group on the EAG.
All fluorescence measurements were performed using a SpectraMax M2e plate reader (Molecular Devices, San Jose, CA, USA). The fluorescence spectra of the compounds’ solution (100 μL PBS, 5.0 µM) were recorded with excitation at 380 nm and an emission wavelength from 400 to 680 nm. To PBS solutions (100 μL) of the compounds (5.0 µM), various Aβ42 species were added, with final concentrations of 5.0 µM and 25.0 µM, and their fluorescence spectra (λmax of emission) were determined as described above. […]

T2 sequence (P05067 672-713 limits assumed): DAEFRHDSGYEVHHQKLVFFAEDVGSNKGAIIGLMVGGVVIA
T1 sequence (P05067 672-713 limits assumed): as above
T3 sequence (P05067 672-713 limits assumed): as above
T4 sequence (P05067 672-713 limits assumed): as above

A word on the logD: it is the decadic logarithm of the distribution of all forms, ionised or not, between an organic phase and buffer at a given pH. As to `COc1cc(/C=C/c2ccc(N(C)C)cc2)cc(CN2CCN(C)CCN(C)CC2)c1O` [Compound L1, (E)-2-((4,7-dimethyl-1,4,7-triazonan-1-yl)methyl)-4-(4-(dimethylamino)styryl)-6-methoxyphenol], in data set [1], the “effect on Cu-stabilized Aβ42 / Aβ42-induced toxicity” value is “rescue cells from Cu-Aβ42 cytotoxicity”. This compound also returned a logD in data set [2] of 1.33 ± 0.01. In addition, the “Compound+Fibrils λem (λmax of emission)” value at Aβ42 fibrils stood at 455 nm. The “Compound+sAβ λem (λmax of emission)” value in data set [3] is recorded as 455 nm. Also, the “Compound λem (λmax of emission)” value in data set [4] is listed as 455 nm. Further, the “Pearson's coefficient (R) of colocalization with AF594-HJ3.4” value (“Pearson's coefficient (R)” for short) in data set [5] stood at 0.67.
Turning to `CNc1ccc(/C=C/c2ccc(O)c(CN3CCN(C)CCN(C)CC3)c2)cc1` [Compound L3, (E)-2-((4,7-dimethyl-1,4,7-triazonan-1-yl)methyl)-4-(4-(methylamino)styryl)phenol], the logD in data set [2] amounted to 0.98 ± 0.01. For the same compound, at Aβ42 fibrils, the “Compound+Fibrils λem (λmax of emission)” value stood at 430 nm. The “Compound+sAβ λem (λmax of emission)” value in data set [3] came to 430 nm. Moreover, in data set [4], the “Compound λem (λmax of emission)” value is recorded as 455 nm. The “Pearson's coefficient (R)” value in data set [5] was 0.72.
Regarding `CCN(CC)c1ccc(/C=C/c2cc(CN3CCN(C)CCN(C)CC3)c(O)c(OC)c2)cc1` [Compound L5, (E)-4-(4-(diethylamino)styryl)-2-((4,7-dimethyl-1,4,7-triazonan-1-yl)methyl)-6-methoxyphenol], in data set [1], the “effect on Cu-stabilized Aβ42 / Aβ42-induced toxicity” value is “rescue cells from Cu-Aβ42 cytotoxicity”. The logD in data set [2] was found to be 1.39 ± 0.01. Besides, the “Compound+Fibrils λem (λmax of emission)” value on Aβ42 fibrils is 435 nm. The “Compound+sAβ λem (λmax of emission)” value in data set [3] turned out to be 435 nm. The “Compound λem (λmax of emission)” value in data set [4] is reported as 460 nm. Also, the “Pearson's coefficient (R)” value in data set [5] turned out to be 0.74.
In data set [2], `CCN(CC)c1ccc(/C=C/c2ccc(O)c(CN3CCN(C)CCN(C)CC3)c2)cc1` [Compound L6, (E)-4-(4-(diethylamino)styryl)-2-((4,7-dimethyl-1,4,7-triazonan-1-yl)methyl)phenol] gave a logD of 1.37 ± 0.01. Further, at Aβ42 fibrils, the “Compound+Fibrils λem (λmax of emission)” value is on record as 430 nm. Moreover, the “Compound+sAβ λem (λmax of emission)” value in data set [3] is reported as 430 nm. The “Compound λem (λmax of emission)” value in data set [4] turned out to be 455 nm. The “Pearson's coefficient (R)” value in data set [5] was 0.70.
In data set [2], `COc1cc(/C=C/c2ccc(N3CCCCC3)cc2)cc(CN2CCN(C)CCN(C)CC2)c1O` [Compound L7, (E)-2-((4,7-dimethyl-1,4,7-triazonan-1-yl)methyl)-6-methoxy-4-(4-(piperidin-1-yl)styryl)phenol] displayed a logD of 1.35 ± 0.02. The “Compound+Fibrils λem (λmax of emission)” value on Aβ42 fibrils was found to be 430 nm. Also, the “Compound+sAβ λem (λmax of emission)” value in data set [3] was 430 nm. Also, the “Compound λem (λmax of emission)” value in data set [4] is 460 nm. The “Pearson's coefficient (R)” value in data set [5] was found to be 0.66.
On to `CN1CCN(C)CCN(Cc2cc(/C=C/c3ccc(N4CCOCC4)cc3)ccc2O)CC1` [Compound L10, (E)-2-((4,7-dimethyl-1,4,7-triazonan-1-yl)methyl)-4-(4-morpholinostyryl)phenol], for which the “effect on Cu-stabilized Aβ42 / Aβ42-induced toxicity” value in data set [1] is recorded as “rescue cells from Cu-Aβ42 cytotoxicity”. This compound also yielded a logD in data set [2] of 1.03 ± 0.01. The “Compound+Fibrils λem (λmax of emission)” value on Aβ42 fibrils turned out to be 435 nm. Moreover, in data set [3], the “Compound+sAβ λem (λmax of emission)” value amounted to 435 nm. For the same compound, the “Compound λem (λmax of emission)” value in data set [4] was determined as 455 nm. In data set [6], the “fluorescence enhancement / turn-on with Aβ aggregates” value is listed as “highest fluorescence intensity; also recorded: greatest overall fluorescence enhancements”. Besides, the “Pearson's coefficient (R)” value in data set [5] stood at 0.74.
On to `COc1cc(/C=C/c2ccc(N3CCN(C)CC3)cc2)cc(CN2CCN(C)CCN(C)CC2)c1O` [Compound L11, (E)-2-((4,7-dimethyl-1,4,7-triazonan-1-yl)methyl)-6-methoxy-4-(4-(4-methylpiperazin-1-yl)styryl)phenol], for which the “effect on Cu-stabilized Aβ42 / Aβ42-induced toxicity” value in data set [1] was “inhibit both Cu-stabilized Aβ42- and Aβ42-induced toxicity; also recorded: rescue cells from Cu-Aβ42 cytotoxicity”. In data set [2], this compound came in with a logD of 0.85 ± 0.01. Besides, at Aβ42 fibrils, the “Compound+Fibrils λem (λmax of emission)” value is 450 nm. Further, in data set [3], the “Compound+sAβ λem (λmax of emission)” value turned out to be 450 nm. Besides, the “Compound λem (λmax of emission)” value in data set [4] stood at 455 nm. For the same compound, the “Pearson's coefficient (R)” value in data set [5] amounted to 0.77.
